The source made the active and inactive calls. The calls are words filed in the database; no cut-off is given here.

In assay [1] the test system is Mahlavu. The experiment in a line: Antiproliferative activity against human Mahlavu cells assessed as reduction in cell viability measured after 72 hrs by SRB assay. Type of assay: functional, cell-based.
For assay [2], the system named is Huh-7. As to the kind of experiment: Antiproliferative activity against human Huh-7 cells assessed as reduction in cell viability measured after 40 to 150 hrs by RT-CES analysis. The note with it: time 40-150 hrs. Type of assay: functional, cell-based.
Assay [3] relates to HepG2. As to the kind of experiment: Antiproliferative activity against human HepG2 cells assessed as reduction in cell viability measured after 90 hrs by RT-CES analysis. Type of assay: functional, cell-based.
Assay [4] deals with Huh-7. As to the kind of experiment: Antiproliferative activity against human Huh-7 cells assessed as reduction in cell viability measured for 180 hrs by RT-CES analysis. Type of assay: functional, cell-based. The settings on record: dose 2.5-10 µM.
For assay [5], the system named is SNU-475. The experiment in a line: Cell cycle arrest in human SNU-475 cells assessed as increase in accumulation of cells at G2/M phase at 5 uM measured after 48 hrs by propidium iodide staining based flow cytometric analysis. Type of assay: functional.
Assay [6] concerns HepG2. The experiment in a line: Cell cycle arrest in human HepG2 cells assessed as increase in accumulation of cells at G0/G1 phase at 5 uM measured after 48 hrs by propidium iodide staining based flow cytometric analysis. Type of assay: functional.
For assay [7], the system named is Mahlavu. As to the kind of experiment: Induction of apoptosis in human Mahlavu cells at 5 uM measured after 72 hrs by Annexin V-FITC/propidium iodide staining based flow cytometric analysis. Type of assay: functional, cell-based.
Assay [8] relates to HepG2. The experiment in a line: Induction of apoptosis in human HepG2 cells at 5 uM measured after 72 hrs by Annexin V-FITC/propidium iodide staining based flow cytometric analysis. Type of assay: functional, cell-based.
Assay [9] has as its system SNU-475. As to the kind of experiment: Activation of p53 harboring A239G/T275C/A288G mutant in human SNU-475 cells assessed as upregulation of p53 phosphorylation at Ser15 residue at 5 uM incubated for 72 hrs by western blot analysis. Type of assay: cell-based. The note with it: filed as activator.
The subject of assay [10] is SNU-475. The experiment in a line: Activation of p53 harboring A239G/T275C/A288G mutant in human SNU-475 cells assessed as upregulation of p53 acetylation at Lys382 residue at 5 uM incubated for 72 hrs by western blot analysis. Type of assay: cell-based. The note with it: filed as activator.
Assay [11] has as its target Cellular tumor antigen p53 (Homo sapiens) (UniProt P04637). As to the kind of experiment: Activation of p53 in human HepG2 cells at 5 uM measured after 72 hrs by Western blot analysis. Type of assay: cell-based.
For assay [12], the system named is SNU-475. As to the kind of experiment: Activation of p53 harboring A239G/T275C/A288G mutant in human SNU-475 cells assessed as upregulation of p21 protein expression at 5 uM incubated for 72 hrs by western blot analysis. Type of assay: cell-based. The settings on record: filed as activator.
In assay [13] the target is Serine/threonine-protein kinase AKT (Homo sapiens) (UniProt P31751+Q9Y243+P31749). As to the kind of experiment: Inhibition of Akt phosphorylation at Ser473 residue in human SNU-475 cells at 5 uM measured after 72 hrs by Western blot analysis. Type of assay: cell-based.
Assay [14] can be described thus: Inhibition of PI3K/Akt/mTOR signaling in human Mahlavu cells assessed as downregulation of c-Myc protein expression at 5 uM measured after 72 hrs by Western blot analysis. Type of assay: cell-based.
Assay [15] concerns the target T1, Mitogen-activated protein kinase; ERK1/ERK2 (Homo sapiens) (UniProt P27361+P28482). As to the kind of experiment: Inhibition of ERK1/2 phosphorylation at T202/Y204 residue in human Mahlavu cells at 5 uM measured after 72 hrs by Western blot analysis. Type of assay: cell-based.
Assay [16] relates to Mahlavu. The experiment in a line: Inhibition of cell stemness in human Mahlavu cells assessed as decrease in NANOG mRNA level at 10 uM measured after 72 hrs by RT-qPCR analysis. Type of assay: functional, cell-based.
Assay [17] concerns Huh-7. The experiment in a line: Inhibition of cell stemness in human Huh-7 cells assessed as decrease in NANOG mRNA level at 10 uM measured after 72 hrs by RT-qPCR analysis. Type of assay: functional, cell-based.
Assay [18] has as its system Mahlavu. The experiment in a line: Inhibition of cell stemness in human Mahlavu cells assessed as decrease in NANOG level at 10 uM measured after 72 hrs by flow cytometry analysis. Type of assay: functional, cell-based.
The test system of assay [19] is Huh-7. As to the kind of experiment: Inhibition of cell stemness in human Huh-7 cells assessed as reduction in tumor spheres count at 10 uM incubated for 72 hrs followed by incubation in sphere formation medium for 7 days by microscopic analysis. The settings on record: time 10.0 day. Type of assay: functional, cell-based.
The subject of assay [20] is Huh-7. The experiment in a line: Inhibition of cell stemness in human Huh-7 cells assessed as reduction in size of tumor spheres at 10 uM incubated for 72 hrs followed by incubation in sphere formation medium for 14 days by microscopic analysis. Type of assay: functional, cell-based. The note with it: time 17.0 day.
Assay [21] relates to Mahlavu. As to the kind of experiment: Induction of apoptosis in human Mahlavu cells assessed as apoptotic body formation measured after 48 hrs by Hoechst33258 staining based inverted fluorescent microscopic method. Type of assay: functional, cell-based.
Assay [22] has as its system Huh-7. The experiment in a line: Induction of apoptosis in human Huh-7 cells assessed as chromatin condensation measured after 48 hrs by Hoechst33258 staining based inverted fluorescent microscopic method. Type of assay: functional, cell-based.
Assay [23] addresses T1, Mitogen-activated protein kinase; ERK1/ERK2 (Homo sapiens). The experiment in a line: Downregulation of ERK1/2 phosphorylation at T202/Y204 residue in human SNU-475 cells at 5 uM measured after 72 hrs by Western blot analysis. Type of assay: cell-based.
Assay [24] deals with Mahlavu. As to the kind of experiment: Activation of p53 harboring G249T mutant in human Mahlavu cells assessed as upregulation of p53 phosphorylation at Ser15 residue at 5 uM incubated for 72 hrs by western blot analysis. The settings on record: filed as activator. Type of assay: cell-based.

T1 sequence (P27361 whole entry, looked up): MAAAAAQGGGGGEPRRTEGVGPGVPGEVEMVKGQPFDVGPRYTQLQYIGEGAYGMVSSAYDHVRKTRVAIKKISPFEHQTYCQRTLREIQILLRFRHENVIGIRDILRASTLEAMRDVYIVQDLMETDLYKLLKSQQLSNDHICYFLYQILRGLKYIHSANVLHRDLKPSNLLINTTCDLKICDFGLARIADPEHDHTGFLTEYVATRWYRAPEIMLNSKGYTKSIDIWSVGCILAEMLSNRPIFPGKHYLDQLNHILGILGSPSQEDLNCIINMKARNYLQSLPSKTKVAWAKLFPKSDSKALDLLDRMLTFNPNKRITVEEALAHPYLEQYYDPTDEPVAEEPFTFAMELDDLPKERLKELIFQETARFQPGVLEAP
T1 sequence (P28482 whole entry, looked up): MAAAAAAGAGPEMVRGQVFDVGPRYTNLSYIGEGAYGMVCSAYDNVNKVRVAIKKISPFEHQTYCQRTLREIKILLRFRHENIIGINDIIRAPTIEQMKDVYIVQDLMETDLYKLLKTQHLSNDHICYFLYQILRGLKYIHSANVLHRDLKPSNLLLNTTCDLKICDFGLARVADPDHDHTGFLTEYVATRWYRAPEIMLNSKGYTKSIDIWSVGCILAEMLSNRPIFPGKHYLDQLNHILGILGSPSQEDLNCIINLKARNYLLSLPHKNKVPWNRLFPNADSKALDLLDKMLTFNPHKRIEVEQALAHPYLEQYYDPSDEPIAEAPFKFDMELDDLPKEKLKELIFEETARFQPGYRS
Chain of Cellular tumor antigen p53 (Homo sapiens) (P04637 whole entry, looked up): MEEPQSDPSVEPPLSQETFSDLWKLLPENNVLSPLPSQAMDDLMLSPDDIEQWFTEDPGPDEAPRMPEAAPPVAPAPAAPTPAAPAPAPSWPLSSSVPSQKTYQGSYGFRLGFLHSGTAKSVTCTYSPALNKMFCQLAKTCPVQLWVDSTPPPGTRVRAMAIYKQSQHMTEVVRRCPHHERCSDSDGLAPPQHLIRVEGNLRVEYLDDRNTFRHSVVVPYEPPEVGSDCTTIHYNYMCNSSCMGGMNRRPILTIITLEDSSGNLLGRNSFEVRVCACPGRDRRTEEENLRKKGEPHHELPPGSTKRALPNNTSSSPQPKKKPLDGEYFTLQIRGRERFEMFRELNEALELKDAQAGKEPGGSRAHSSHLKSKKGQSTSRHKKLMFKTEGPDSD
Chain of Serine/threonine-protein kinase AKT (Homo sapiens) (P31749 whole entry, looked up): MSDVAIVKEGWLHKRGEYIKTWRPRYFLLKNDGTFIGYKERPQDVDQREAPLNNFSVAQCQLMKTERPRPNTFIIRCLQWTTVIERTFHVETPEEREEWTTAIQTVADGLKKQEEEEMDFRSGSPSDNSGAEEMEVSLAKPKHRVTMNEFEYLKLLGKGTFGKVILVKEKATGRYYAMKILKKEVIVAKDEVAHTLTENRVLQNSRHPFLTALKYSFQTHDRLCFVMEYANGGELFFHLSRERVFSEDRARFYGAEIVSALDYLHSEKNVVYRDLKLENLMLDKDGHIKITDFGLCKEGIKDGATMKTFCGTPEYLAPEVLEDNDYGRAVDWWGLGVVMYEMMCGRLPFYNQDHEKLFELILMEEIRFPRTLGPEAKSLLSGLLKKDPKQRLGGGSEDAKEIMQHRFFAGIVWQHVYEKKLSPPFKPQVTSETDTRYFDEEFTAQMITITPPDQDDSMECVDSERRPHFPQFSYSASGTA
Chain of Serine/threonine-protein kinase AKT (Homo sapiens) (P31751 whole entry, looked up): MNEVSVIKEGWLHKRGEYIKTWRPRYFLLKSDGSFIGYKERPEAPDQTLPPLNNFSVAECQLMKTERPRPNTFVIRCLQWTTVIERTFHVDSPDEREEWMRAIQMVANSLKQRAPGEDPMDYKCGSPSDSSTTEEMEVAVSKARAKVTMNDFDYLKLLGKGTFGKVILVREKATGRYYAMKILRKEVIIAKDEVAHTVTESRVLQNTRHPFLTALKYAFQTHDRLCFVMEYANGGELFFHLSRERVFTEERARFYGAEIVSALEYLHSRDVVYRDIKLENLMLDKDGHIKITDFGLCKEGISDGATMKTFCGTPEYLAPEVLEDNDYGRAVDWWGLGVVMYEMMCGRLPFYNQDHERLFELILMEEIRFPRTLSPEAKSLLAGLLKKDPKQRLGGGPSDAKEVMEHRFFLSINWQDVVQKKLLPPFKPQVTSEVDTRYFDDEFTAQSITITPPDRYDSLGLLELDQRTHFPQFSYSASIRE
Chain of Serine/threonine-protein kinase AKT (Homo sapiens) (Q9Y243 whole entry, looked up): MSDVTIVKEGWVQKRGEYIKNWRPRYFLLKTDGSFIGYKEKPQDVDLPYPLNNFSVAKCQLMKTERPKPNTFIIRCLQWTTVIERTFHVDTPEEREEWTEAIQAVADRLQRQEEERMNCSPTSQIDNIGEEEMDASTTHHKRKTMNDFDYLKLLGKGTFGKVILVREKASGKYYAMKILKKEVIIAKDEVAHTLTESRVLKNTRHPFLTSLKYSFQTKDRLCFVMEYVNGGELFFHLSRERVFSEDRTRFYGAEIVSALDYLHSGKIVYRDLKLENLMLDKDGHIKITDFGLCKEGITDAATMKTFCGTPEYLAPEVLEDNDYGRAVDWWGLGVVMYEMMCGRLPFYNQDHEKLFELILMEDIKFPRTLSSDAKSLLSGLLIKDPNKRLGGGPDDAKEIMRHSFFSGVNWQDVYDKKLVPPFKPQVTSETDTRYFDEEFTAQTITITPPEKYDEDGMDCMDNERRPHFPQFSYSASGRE

As to `N#Cc1cccc(COc2ccc(-c3cc(CN4CCN(Cc5ccc(C(F)(F)F)cc5)CC4)no3)cc2F)c1`, the concentration for half-maximal inhibition (IC50) in [1] stood at 0.5 µM. Further, the result in assay [2], in assay [3], in [5], in [6], in [7] and in assay [8] was Active. Moreover, the outcome in assay [9], in assay [10], in [12], in assay [21] and in [22] was Active. Also, the Activity result in assay [4] is “Dose-Dependent Effect”. The result in assay [11] was inactive. Further, the inhibition result in [13], in [14], in [15], in assay [16], in assay [17] and in [18] was “Active” each time. In addition, the inhibition entry in assay [19], in [20] and in [23] was “Active” each time.

`FC(F)(F)c1ccc(CN2CCN(Cc3cc(-c4ccc(OCc5ccccc5)cc4)on3)CC2)cc1`: in assay [1], the IC50 was 11.7 µM. The result in assay [2], in assay [3], in [5], in assay [6], in assay [7] and in assay [8] was Active. The outcome in [9], in assay [24], in assay [12], in assay [21] and in [22] was Active. Moreover, the Activity result in assay [4] is “Dose-Dependent Effect”. Besides, the outcome in assay [11] was inactive. Further, the inhibition entry in assay [14], in assay [15], in assay [17], in [18], in [19] and in [20] was “Active” throughout. Further, the inhibition entry in assay [23] was “Active”.

These data come from ChEMBL document CHEMBL4837206, “Synthesis and biological evaluation of novel isoxazole-piperazine hybrids as potential anti-cancer agents with inhibitory effect on liver cancer stem cells” (Eur J Med Chem, 2021).
